What was measured:
CYP26 [1] = target: T1, CYP26 (Homo sapiens, UniProt O43174); conditions: human recombinant enzyme; read-out: Km reported for the human recombinant enzyme; cited from earlier work
T1 sequence (O43174 1-497): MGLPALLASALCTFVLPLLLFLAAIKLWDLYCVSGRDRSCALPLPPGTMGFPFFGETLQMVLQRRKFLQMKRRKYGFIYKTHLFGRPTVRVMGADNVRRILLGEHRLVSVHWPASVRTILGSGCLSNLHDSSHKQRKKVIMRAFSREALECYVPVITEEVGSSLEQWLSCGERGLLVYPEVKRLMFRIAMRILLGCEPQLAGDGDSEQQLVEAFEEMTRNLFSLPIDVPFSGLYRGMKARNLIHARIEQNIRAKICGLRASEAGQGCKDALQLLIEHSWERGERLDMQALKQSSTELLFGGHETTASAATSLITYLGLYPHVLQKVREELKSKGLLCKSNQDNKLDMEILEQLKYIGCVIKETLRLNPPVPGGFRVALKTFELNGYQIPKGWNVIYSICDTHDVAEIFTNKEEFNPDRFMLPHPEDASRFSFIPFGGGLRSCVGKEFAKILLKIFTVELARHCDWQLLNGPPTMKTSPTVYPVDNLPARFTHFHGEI

CYP19 = target: T2, CYP19 (Homo sapiens, UniProt P11511); test: CYP19 inhibition: commercially available recombinant enzyme and assay kit; assay type: biochemical
T2 construct: purchased BD Gentest 456260
T2 sequence (P11511 1-503): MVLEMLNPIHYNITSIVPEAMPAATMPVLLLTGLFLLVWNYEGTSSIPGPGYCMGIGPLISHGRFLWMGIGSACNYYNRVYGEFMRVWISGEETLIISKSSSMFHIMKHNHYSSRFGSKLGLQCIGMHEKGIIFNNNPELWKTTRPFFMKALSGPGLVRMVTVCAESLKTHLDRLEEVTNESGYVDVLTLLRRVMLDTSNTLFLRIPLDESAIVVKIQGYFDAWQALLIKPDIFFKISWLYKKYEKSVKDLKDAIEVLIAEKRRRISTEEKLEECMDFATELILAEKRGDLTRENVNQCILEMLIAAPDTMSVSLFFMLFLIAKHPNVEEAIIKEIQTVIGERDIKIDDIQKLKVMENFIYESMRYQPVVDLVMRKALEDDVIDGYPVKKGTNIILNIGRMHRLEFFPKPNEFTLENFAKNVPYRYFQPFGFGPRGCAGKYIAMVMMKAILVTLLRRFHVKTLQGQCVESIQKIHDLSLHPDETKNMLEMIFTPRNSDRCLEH
Protocol: (§1) Serum Testosterone and PSA and Tumor Testosterone Analysis. Tumor tissue obtained from mice will be homogenized in phosphate buffer (pH 7.4, 0.1 M) and homogenates centrifuged at 2000 g for 20 min. Testosterone concentrations in the serum and in the clear tissue homogenate supernatant will be determined with the ELISA kit from R&D Systems (Catalog # KGR010). Serum PSA concentrations will be measured using a PSA ELISA kit with a serum dilution according to the manufacturers instructions. • c. Breast cancer. To test the efficacy of compounds embodied herein against breast cancer, nude mice carrying human breast cancer lines that are estrogen receptor and Aromatase positive will be used. Cells will be grown in vitro and 2 million will be inoculated in Matrigel (50:50 volume ratio of cells to Matrigel). Cells will be distributed by s.c. injection at the right and left flanks or at the orthotopic sitest in 6 to 8 week old athymic nude mice (BALB/c strain) or severe combined immunodeficient mice under anesthesia. Animals will be treated with compound for 4 weeks, at which point animals will be sacrificed and collect blood samples and tumor tissue for the determination of serum and tumor estrogen levels. Tumors will be excised and a portion will be fixed in formalin for subsequent histochemical and immuno-histochemical analysis. The remainder will be snap frozen in liquid nitrogen and stored at −80° C. • 12. CYP26 inhibition activity. A substrate depletion assay for ATRA metabolism in mouse microsomes is used. […] The assay is run in a 100 μL reaction volume and stopped with an equal volume of methanol. […] CYP17 inhibition assay: In vitro assays for CYP17 17α-hydroxylase and C17,20-lyase activity, assays using rat and dog testis microsomes and ELISA kits from commercial vendors for the detection of formed products are employed. Incubation of rat testis microsomes with the substrate progesterone (P4) results, through the CYP17 17α-hydroxylase and C17,20-lyase activities, in a marked production of androstenedione (AD) in a time and enzyme-concentration dependent manner. […] In another control, microsomes isolated from rat livers, which are known to express very little or no CYP17, are shown to be devoid of this activity. Assays are also used that determine the activity of 17α-hydroxylase activity using P4 as a substrate and detecting HOP4 as a product (using dog testis microsomes) and the activity of C17,20-lyase by using HOP4 as a substrate and AD as a product (rat testis microsomes). • 14. CYP19 inhibition assay: For in vitro assays of CYP19 aromatase activity, commercially available CYP19 enzyme preparations (e.g. BD Gentest Supersomes Catalog #456260) and assay kits (e.g. BD Gentest Catalog #459520) are employed according to the manufacturers instructions.
Selectivity for other P450 enzymes. To assess the selectivity of compounds embodied herein, activity was evaluated first against CYP3A4 and CYP19 using commercially available recombinant enzymes and assay kits. To calculate a selectivity factor, the IC50 for a particular P450 enzyme was divided by the IC50 in the CYP17 combination assay.

CYP26 [2] = target: T3, CYP26 (Mus musculus, UniProt O55127); test: CYP26 inhibition: substrate depletion assay for ATRA metabolism in mouse microsomes; assay type: biochemical
T3 construct: tissue Xenotech; host or cells: liver microsomes of ATRA-treated mice
T3 sequence (O55127 1-497): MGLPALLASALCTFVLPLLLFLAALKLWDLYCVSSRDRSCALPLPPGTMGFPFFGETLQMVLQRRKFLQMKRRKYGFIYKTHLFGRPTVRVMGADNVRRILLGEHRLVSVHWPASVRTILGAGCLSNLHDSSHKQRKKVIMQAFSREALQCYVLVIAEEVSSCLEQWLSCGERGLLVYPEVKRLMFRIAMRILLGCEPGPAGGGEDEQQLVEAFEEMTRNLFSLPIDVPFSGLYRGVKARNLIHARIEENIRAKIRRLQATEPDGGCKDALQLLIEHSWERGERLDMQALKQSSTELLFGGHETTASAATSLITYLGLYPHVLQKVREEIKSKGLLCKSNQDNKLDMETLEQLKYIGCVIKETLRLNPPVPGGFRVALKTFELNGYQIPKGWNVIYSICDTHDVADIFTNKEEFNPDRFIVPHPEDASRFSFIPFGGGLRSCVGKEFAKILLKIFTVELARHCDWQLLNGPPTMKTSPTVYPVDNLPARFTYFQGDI
Protocol: as §1
CYP26 inhibition. […] The assay was run in a 100 μL reaction volume and stopped with an equal volume of methanol. […] Other compounds of formula (I) are similarly potent, for example with an IC50 of 1.6 nM.

CYP17 = target: T4, CYP17 (Rattus norvegicus, UniProt P11715); test: CYP17 inhibition: 17α hydroxylase and C17,20 lyase activity in testis microsomes, ELISA detection; assay type: biochemical; conditions: which microsome assay (rat or dog testis) not specified
T4 construct: using rat and dog testis microsomes and ELISA kits from commercial vendors; from tissue; host or cells: rat testis microsomes
T4 sequence (P11715 1-507): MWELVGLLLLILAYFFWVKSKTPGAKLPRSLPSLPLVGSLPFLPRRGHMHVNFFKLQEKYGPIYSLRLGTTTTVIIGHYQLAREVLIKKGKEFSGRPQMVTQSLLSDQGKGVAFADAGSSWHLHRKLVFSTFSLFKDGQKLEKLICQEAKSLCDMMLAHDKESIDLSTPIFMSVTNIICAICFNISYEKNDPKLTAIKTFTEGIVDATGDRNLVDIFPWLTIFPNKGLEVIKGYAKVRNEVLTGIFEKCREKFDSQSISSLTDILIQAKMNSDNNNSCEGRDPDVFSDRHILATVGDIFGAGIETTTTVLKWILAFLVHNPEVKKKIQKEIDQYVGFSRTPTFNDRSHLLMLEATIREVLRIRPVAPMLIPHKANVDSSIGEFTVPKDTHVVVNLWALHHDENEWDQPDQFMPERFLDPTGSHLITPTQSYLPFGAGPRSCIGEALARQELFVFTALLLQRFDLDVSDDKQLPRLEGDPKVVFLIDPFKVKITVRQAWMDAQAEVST
Protocol: Serum Testosterone and PSA and Tumor Testosterone Analysis. Tumor tissue obtained from mice will be homogenized in phosphate buffer (pH 7.4, 0.1 M) and homogenates centrifuged at 2000 g for 20 min. Testosterone concentrations in the serum and in the clear tissue homogenate supernatant will be determined with the ELISA kit from R&D Systems (Catalog # KGR010). Serum PSA concentrations will be measured using a PSA ELISA kit with a serum dilution according to the manufacturers instructions. • c. Breast cancer. To test the efficacy of compounds embodied herein against breast cancer, nude mice carrying human breast cancer lines that are estrogen receptor and Aromatase positive will be used. Cells will be grown in vitro and 2 million will be inoculated in Matrigel (50:50 volume ratio of cells to Matrigel). Cells will be distributed by s.c. injection at the right and left flanks or at the orthotopic sitest in 6 to 8 week old athymic nude mice (BALB/c strain) or severe combined immunodeficient mice under anesthesia. Animals will be treated with compound for 4 weeks, at which point animals will be sacrificed and collect blood samples and tumor tissue for the determination of serum and tumor estrogen levels. Tumors will be excised and a portion will be fixed in formalin for subsequent histochemical and immuno-histochemical analysis. The remainder will be snap frozen in liquid nitrogen and stored at −80° C. • 12. CYP26 inhibition activity. […] The assay is run in a 100 μL reaction volume and stopped with an equal volume of methanol. […] CYP17 inhibition assay: In vitro assays for CYP17 17α-hydroxylase and C17,20-lyase activity, assays using rat and dog testis microsomes and ELISA kits from commercial vendors for the detection of formed products are employed. […] Assays are also used that determine the activity of 17α-hydroxylase activity using P4 as a substrate and detecting HOP4 as a product (using dog testis microsomes) and the activity of C17,20-lyase by using HOP4 as a substrate and AD as a product (rat testis microsomes). • 14.
CYP17 inhibition. In vitro assays for CYP17 17α hydroxylase and C17,20 lyase activity using rat and dog testis microsomes and ELISA kits from commercial vendors for the detection of formed products were employed. […] Assays were also used that determine the activity of 17α hydroxylase activity using P4 as a substrate and detecting HOP4 as a product (using dog testis microsomes) and the activity of C17,20 lyase by using HOP4 as a substrate and AD as a product (rat testis microsomes).

[3] = substrate: CC1=C(/C=C/C(C)=C/C=C/C(C)=C/C(=O)O)C(C)(C)CCC1; test: cells, lysate or membranes named; conditions: other: induced mouse microsomes; pH 7.4

**Q.** For `CC1=C(/C=C/C(C)=C/C=C/C(C)=C/C(=O)O)C(C)(C)CCC1` [ATRA, all-trans retinoic acid], which Km (CYP26 [1]) is on record?
**A.** The Km was ~0.01 µM.

**Q.** Which IC50 (CYP19) does the source give for `CCC(C(c1ccc2nc(Br)sc2c1)n1ccnc1)N(C)C` (centres unmarked) [Example 8, 1-(2-Bromobenzo[d]thiazol-6-yl)-1-(1H-imidazol-1-yl)-N,N-dimethylbutan-2-amine] here?
**A.** The IC50 was < 1000 nM.

**Q.** And the IC50 (CYP26 [2])?
**A.** The IC50 was < 1000 nM.

**Q.** What about the IC50 (CYP17) of the same molecule?
**A.** The IC50 was < 5000 nM.

**Q.** For `CCC(C(c1ccc2nc(N)sc2c1)n1ccnc1)N(C)C` (centres unmarked) [Example 1, 6-(2-(Dimethylamino)-1-(1H-imidazol-1-yl)butyl)benzo[d]thiazol-2-amine], which IC50 (CYP19) is on record?
**A.** Its IC50 is < 1000 nM.

**Q.** What about the IC50 (CYP26 [2]) of the same molecule?
**A.** The IC50 was < 1000 nM.

**Q.** And the IC50 (CYP17)?
**A.** Its IC50 is < 5000 nM.

B1: CYP26 (Mus musculus) (protein)
chain: T3 sequence (O55127 1-497)
**Q.** With B1 as the molecule, how does the Km [3] read?
**A.** Its Km is 0.004 µM.
